Reference: US7728146B2, “Enzyme inhibitors” (Probiodrug AG, priority 2006, dated 2010)

Biological target: DP IV (Homo sapiens, UniProt P27487)
Experiment: DP IV inhibition IC50, parallel-synthesis compounds tested directly following synthesis (without purification)
Format: biochemical
Parameters: IC50 DP4; other: tested directly following parallel synthesis, without purification; compounds of formula (Ib) from parallel synthesis, tested directly following synthesis
Conditions: DP IV inhibition; compounds of formula (Ib) from parallel synthesis, tested directly following synthesis (without purification); read-out: IC50
Summary of the method: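 Porcine kidney or recombinant human enzyme (~40-50 μU/ml, HEPES buffer) hydrolysing Gly-Pro-pNA at room temperature, with 5% DMSO final; 11-point 1:2 dilutions from 100 μM final, in duplicate. pNA release read at 405 nm over ~18 min; slopes vs solvent control give residual activity, and IC50 comes from a 4-parameter fit.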

| Compound | IC50 [µM] |
| --- | --- |
| NCc1c(-c2ccc(Cl)cc2Cl)ncn1CC(c1ccccc1)c1ccccc1 [31b, C-[5-(2,4-Dichloro-phenyl)-3-(2,2-diphenyl-ethyl)-3H-imidazol-4-yl]-methylamine] | 45.1 |
| NCc1c(-c2ccc(Cl)cc2Cl)ncn1CCN1CCOCC1 [10b, C-[5-(2,4-Dichloro-phenyl)-3-(2-morpholin-4-yl-ethyl)-3H-imidazol-4-yl]-methylamine] | 12.7 |
| NCc1c(-c2ccc(Cl)cc2Cl)ncn1CCCNC1CCCCC1 [19b, {3-[5-Aminomethyl-4-(2,4-dichloro-phenyl)-imidazol-1-yl]-propyl}-cyclohexyl-amine] | 45.1 |
| CC(N)c1c(-c2ccc(Cl)cc2Cl)ncn1Cc1cccnc1 (centres unmarked) [78b, 1-[5-(2,4-Dichloro-phenyl)-3-pyridin-3-ylmethyl-3H-imidazol-4-yl]-ethylamine] | 28 |
| COc1ccccc1Cn1cnc(-c2ccc(Cl)cc2Cl)c1C(C)N (centres unmarked) [80b, 1-[5-(2,4-Dichloro-phenyl)-3-(2-methoxy-benzyl)-3H-imidazol-4-yl]-ethylamine] | 2.8 |
| CC(N)c1c(-c2ccc(Cl)cc2Cl)ncn1CCc1ccccn1 (centres unmarked) [73b, 1-[5-(2,4-Dichloro-phenyl)-3-(2-pyridin-2-yl-ethyl)-3H-imidazol-4-yl]-ethylamine] | 38.8 |
| NCc1c(-c2ccc(Cl)cc2Cl)ncn1CCc1ccc(Cl)cc1 [102b, C-[3-[2-(4-Chloro-phenyl)-ethyl]-5-(2,4-dichloro-phenyl)-3H-imidazol-4-yl]-methylamine] | 19 |
| CC(N)c1c(-c2ccc(Cl)cc2Cl)ncn1CCc1ccccc1Cl (centres unmarked) [63b, 1-[3-[2-(2-Chloro-phenyl)-ethyl]-5-(2,4-dichloro-phenyl)-3H-imidazol-4-yl]-ethylamine] | 19 |
| NCCCc1c(-c2ccc(Cl)cc2Cl)ncn1Cc1cc(Br)ccc1F [30b, 3-[3-(5-Bromo-2-fluoro-benzyl)-5-(2,4-dichloro-phenyl)-3H-imidazol-4-yl]-propylamine] | 17.2 |
| NCc1c(-c2ccc(Cl)cc2Cl)ncn1CCN1CCCC1 [26b, C-[5-(2,4-Dichloro-phenyl)-3-(2-pyrrolidin-1-yl-ethyl)-3H-imidazol-4-yl]-methylamine] | 40.6 |
| CCCCCn1cnc(-c2ccc(Cl)cc2Cl)c1C(C)N (centres unmarked) [115b, 1-[5-(2,4-Dichloro-phenyl)-3-pentyl-3H-imidazol-4-yl]-ethylamine] | 29.8 |
| NCc1c(-c2ccc(Cl)cc2Cl)ncn1CCc1c[nH]c2cc(F)ccc12 [114b, C-{5-(2,4-Dichloro-phenyl)-3-[2-(6-fluoro-1H-indol-3-yl)-ethyl]-3H-imidazol-4-yl}-methylamine] | 3.7 |
| CC(N)c1c(-c2ccc(Cl)cc2Cl)ncn1Cc1ccccc1Cl (centres unmarked) [67b, 1-[3-(2-Chloro-benzyl)-5-(2,4-dichloro-phenyl)-3H-imidazol-4-yl]-ethylamine] | 28.9 |
| NCc1c(-c2ccc(Cl)cc2Cl)ncn1CCC1=CCCCC1 [65b, C-[3-(2-Cyclohex-1-enyl-ethyl)-5-(2,4-dichloro-phenyl)-3H-imidazol-4-yl]-methylamine] | 2.8 |
| Cc1[nH]ncc1CCCn1cnc(-c2ccc(Cl)cc2Cl)c1CN [87b, C-{5-(2,4-Dichloro-phenyl)-3-[3-(5-methyl-1H-pyrazol-4-yl)-propyl]-3H-imidazol-4-yl}-methylamine] | 8.2 |

Other lines, results leading:

| IC50 [µM] | Compound |
| --- | --- |
| 15.4 | NCc1c(-c2ccc(Cl)cc2Cl)ncn1Cc1ccc(Cl)cc1 [82b, C-[3-(4-Chloro-benzyl)-5-(2,4-dichloro-phenyl)-3H-imidazol-4-yl]-methylamine] |
| 6.4 | NCc1c(-c2ccc(Cl)cc2Cl)ncn1Cc1ccc(Br)cc1 [25b, C-[3-(4-Bromo-benzyl)-5-(2,4-dichloro-phenyl)-3H-imidazol-4-yl]-methylamine] |
| 1.9 | NCc1c(-c2ccc(Cl)cc2Cl)ncn1Cc1cccc(F)c1 [Example 28b, C-[5-(2,4-dichloro-phenyl)-3-(3-fluoro-benzyl)-3H-imidazol-4-yl]-methylamine] |
| 4.6 | Cc1ccccc1Cn1cnc(-c2ccc(Cl)cc2Cl)c1CN [Example 33b, C-[5-(2,4-dichloro-phenyl)-3-(2-methyl-benzyl)-3H-imidazol-4-yl]-methylamine] |
| 19.9 | COc1ccc(Cn2cnc(-c3ccc(Cl)cc3Cl)c2CN)cc1OC [5b, C-[5-(2,4-Dichloro-phenyl)-3-(3,4-dimethoxy-benzyl)-3H-imidazol-4-yl]-methylamine] |
| 5.5 | NCc1c(-c2ccc(Cl)cc2Cl)ncn1CCc1ccccc1F [83b, C-{5-(2,4-Dichloro-phenyl)-3-[2-(2-fluoro-phenyl)-ethyl]-3H-imidazol-4-yl}-methylamine] |
| 10.9 | NCc1c(-c2ccc(Cl)cc2Cl)ncn1CCCO [47b, 3-[5-Aminomethyl-4-(2,4-dichloro-phenyl)-imidazol-1-yl]-propan-1-ol] |
| 5.5 | NCc1c(-c2ccc(Cl)cc2Cl)ncn1CCc1cccc(Cl)c1 [52b, C-[3-[2-(3-Chloro-phenyl)-ethyl]-5-(2,4-dichloro-phenyl)-3H-imidazol-4-yl]-methylamine] |
| 34.3 | NCc1c(-c2ccc(Cl)cc2Cl)ncn1Cc1cc(Br)ccc1F [124b, C-[3-(5-Bromo-2-fluoro-benzyl)-5-(2,4-dichloro-phenyl)-3H-imidazol-4-yl]-methylamine] |
| 46 | CCn1cnc(-c2ccc(Cl)cc2Cl)c1CN [122b, C-[5-(2,4-Dichloro-phenyl)-3-ethyl-3H-imidazol-4-yl]-methylamine] |

Same assay, conditions: tested directly following parallel synthesis, without purification; read-out: IC50 DP4

| Compound | IC50 [µM] |
| --- | --- |
| NCc1c(-c2ccc(F)cc2F)ncn1Cc1ccc2c(c1)OCO2 [Example 81a, C-[3-Ben-zo[1,3]di-oxol-5-yl-methyl-5-(2,4-difluoro-phenyl)-3H-imid-azol-4-yl]-methyl-amine] | 46.9 |
| NCc1c(-c2ccc(F)cc2Cl)ncn1Cc1ccccn1 [Example 30a, C-[5-(2-Chloro-4-fluoro-phenyl)-3-pyri-din-2-yl-methyl-3H-imid-azol-4-yl]-methyl-amine] | 25.3 |
| CCOc1ccccc1Cn1cnc(-c2ccc(F)cc2F)c1CN [Example 82a, C-[5-(2,4-Difluoro-phenyl)-3-(2-ethoxy-benzyl)-3H-imid-azol-4-yl]-methyl-amine] | 14.5 |
| CCCn1cnc(-c2ccc(F)cc2Cl)c1CN [Example 8a, C-[5-(2-Chloro-4-fluoro-phenyl)-3-pro-pyl-3H-imid-azol-4-yl]-methyl-amine] | 48.7 |
| NCc1c(-c2ccc(Cl)cc2Cl)ncn1Cc1ccccn1 [Example 65a, C-[5-(2,4-Dichloro-phenyl)-3-pyri-din-2-yl-methyl-3H-imid-azol-4-yl]-methyl-amine] | 1.9 |
| CC(C)(C)Cn1cnc(-c2ccc(F)cc2Cl)c1CN [Example 21a, C-[5-(2-Chloro-4-fluoro-phenyl)-3-(2,2-di-methyl-propyl)-3H-imid-azol-4-yl]-methyl-amine] | 35.2 |
| Cc1ccc(-c2ncn(Cc3ccccc3)c2CN)c(C)c1 [Example 69a, C-[3-Benzyl-5-(2,4-di-methyl-phenyl)-3H-imid-azol-4-yl]-methyl-amine] | 40.6 |
| NCc1c(-c2ccc(F)cc2Cl)ncn1Cc1ccc(F)c(F)c1 [Example 17a, C-[5-(2-Chloro-4-fluoro-phenyl)-3-(3,4-difluoro-benzyl)-3H-imid-azol-4-yl]-methyl-amine] | 19 |
| NCc1c(-c2ccc(F)cc2F)ncn1Cc1ccccc1F [Example 86a, C-[5-(2,4-Difluoro-phenyl)-3-(2-fluoro-benzyl)-3H-imid-azol-4-yl]-methyl-amine] | 32.5 |
| NCc1c(-c2ccc(F)cc2F)ncn1Cc1cc(Br)ccc1F [Example 79a, C-[3-(5-Bro-mo-2-fluoro-benzyl)-5-(2,4-difluoro-phenyl)-3H-imid-azol-4-yl]-methyl-amine] | 32.5 |
| CC(C)(C)Cn1cnc(-c2ccc(F)cc2F)c1CN [Example 83a, C-[5-(2,4-Difluoro-phenyl)-3-(2,2-dimethyl-propyl)-3H-imid-azol-4-yl]-methyl-amine] | 27.1 |
| NCc1c(-c2ccc(F)cc2Cl)ncn1Cc1cccc(F)c1 [Example 10a, C-[5-(2-Chloro-4-fluoro-phenyl)-3-(3-fluoro-benzyl)-3H-imid-azol-4-yl]-methyl-amine] | 14.5 |

The next lines start with the values.

| IC50 [µM] | Compound |
| --- | --- |
| 1 | NCc1c(-c2ccc(Cl)cc2Cl)ncn1Cc1ccc(F)cc1F [Example 39a, C-[5-(2,4-Dichloro-phenyl)-3-(2,4-difluoro-benzyl)-3H-imid-azol-4-yl]-methyl-amine] |
| 1 | NCc1c(-c2ccc(Cl)cc2Cl)ncn1Cc1cccc(F)c1 [Example 42a, C-[5-(2,4-Dichloro-phenyl)-3-(3-fluoro-benzyl)-3H-imid-azol-4-yl]-methyl-amine] |
| 0.1 | NCc1c(-c2ccc(Cl)cc2Cl)ncn1Cc1ccccc1OC(F)(F)F [Example 55a, C-[5-(2,4-Dichloro-phenyl)-3-(2-tri-fluorometh-oxy-benzyl)-3H-imid-azol-4-yl]-methyl-amine] |
| 2.8 | Cc1ccc(Cn2cnc(-c3ccc(Cl)cc3Cl)c2CN)cc1 [Example 56a, C-[5-(2,4-Dichloro-phenyl)-3-(4-methyl-benzyl)-3H-imid-azol-4-yl]-methyl-amine] |
| 0.1 | NCc1c(-c2ccc(Cl)cc2Cl)ncn1Cc1cccs1 [Example 32a, C-[5-(2,4-Di-chloro-phenyl)-3-thio-phen-2-yl-methyl-3H-imid-azol-4-yl]-methyl-amine] |
| 30.7 | NCc1c(-c2ccc(Cl)cc2Cl)ncn1Cc1cc(Br)ccc1F [Example 44a, C-[3-(5-Bromo-2-fluoro-benzyl)-5-(2,4-dichloro-phenyl)-3H-imid-azol-4-yl]-methyl-amine] |
| 1 | Cc1ccccc1Cn1cnc(-c2ccc(Cl)cc2Cl)c1CN [Example 46a, C-[5-(2,4-Dichloro-phenyl)-3-(2-methyl-benzyl)-3H-imid-azol-4-yl]-methyl-amine] |
